{
  "source": "patent US20240392302A1",
  "about": "“METHOD FOR DETECTING AND QUANTIFYING RNA” (FLUORESCENCE DIAGNOSIS (SHANGHAI) BIOTECH COMPANY LTD., priority 2021, published 2024)",
  "key": {"[1]": {"assay": "Function detection of the nucleic acid aptamer: fluorescence activation of I-5-14 by N16-1, its mutants and base-modified forms", "type": "biochemical", "conditions": "0.5 μM I-5-14 without nucleic acid aptamer, same detection conditions", "protocol": "A primer containing T7 promoter was used for amplification of corresponding cDNA of RNA to be detected, and T7 RNA polymerase (purchased from Fermentas) was used for obtaining RNA by means of transcription with recovered double-stranded cDNA as a template. 10 μL of 3 M NaAc and 115 μL of DEPC water were added into 20 μL of transcription system, and were mixed well before 150 μL of phenol chloroform-[…] mixture (phenol:chloroform:[…]=25:24:1) was added; then the mixture was mixed well by means of oscillation, and the supernatant was taken after centrifugation at 10,000 rpm for 5 min. An equal volume of chloroform solution was added and was mix well by means of oscillation, and then the supernatant was taken after centrifugation at 10,000 rpm for 5 min; the process was repeated once. 2.5 times the volume of anhydrous ethanol was added into the supernatant, and the mixture was placed in a refrigerator at −20° C. for 30 min and was subject to centrifugation at 12,000 rpm at 4° C. for 5 min; then the supernatant was removed, and the precipitation was cleaned twice with 75% pre-cooled anhydrous ethanol. After volatilization of the ethanol, the precipitation was re-suspended with an appropriate amount of screening buffer, and then was treated at 75° C. for 5 min and was placed at room temperature for more than 10 min for subsequent experiments.\nNucleic acid aptamer molecules of N16 or N16 mutants were prepared by using the commonly-used experimental method (I), 2.5 μM of nucleic acid aptamer molecules and 0.5 μM of fluorophore molecules were incubated in a detection buffer (40 mM of HEPES, pH 7.4, 125 mM of KCl, 5 mM of MgCl2, 5% DMSO), and the maximum excitation peak and the maximum emission peak of the fluorescence of the nucleic acid aptamer-fluorophore molecular complex were detected with Synergy Neo2 multifunctional enzyme-labeler. Synergy Neo2 multifunctional enzyme-labeler was used again to detect fluorescence intensity of the nucleic acid aptamer-fluorophore molecular complex under its maximum excitation and emission conditions, the control sample ([…] of fluorophore molecules without nucleic acid aptamer) was also measured under the same conditions, and the ratio of fluorescence intensity was calculated. For example, as for fluorescence of the complex formed by 2.5 μM of N16-1 nucleic acid aptamer and 0.5 μM of I-5-14 fluorophore molecules, the maximum excitation peak is 512 nm and the maximum emission peak is 574 nm. It was detected by the Synergy Neo2 multifunctional enzyme-labeler that the fluorescence intensity of the complex at an excitation condition of 512±10 nm and an emission condition of 574 nm±10 nm was 49,088, while the fluorescence intensity of the control (0.5 μM of I-5-14 fluorophore molecules) under the same detection conditions was 399, so the activation multiple of N16-1 nucleic acid aptamer to I-5-14 fluorophore molecules was 123.\nAccording to the results, most N16-1 mutants with a single base mutation retained a relatively strong fluorescence activation effect (no smaller than 2 times) on I-5-14 (Table 2). Some N16-1 mutants with 2 to 5 base mutations still retained a relatively strong fluorescence activation effect (greater than 20 times) for I-5-14 (Table 3). In a word, many single-base and multi-base mutants of N16-1 might still retain the aptamer function of activating the 1-5-14 fluorophore molecules."}, "[2]": {"system": "F30-N16-1 RNA aptamer molecules", "assay": "Binding of F30-N16-1 RNA aptamer molecules with different fluorescent molecules (fluorescence spectrum, activation multiple)", "type": "biochemical"}, "[3]": {"assay": "Spectral properties (excitation, emission, light absorption) of N16-1-I-5-14 complex", "type": "physicochemical", "conditions": "2 μM I-5-14 with 10 μM N16-1, or 5 μM pure I-5-14", "protocol": "In order to detect the spectral properties of N16-1-I-5-14 complex, N16-1 (SEQ ID NO: 1) RNA was prepared by using the commonly-used experimental method (I). 1 μM of I-5-14 was incubated with 5 μM of N16-1. According to the results, the maximum excitation light of N16-1-I-5-14 complex was 512 nm, and the maximum emission light thereof was 574 nm (FIG. 3B).\nIn order to detect the difference between the light absorption of N16-1-I-5-14 complex and that of I-5-14 fluorophore molecules per se, 2 μM of I-5-14 incubated with 10 μM of N16-1, or 5 μM of pure I-5-14 was used for detecting the light absorption of I-5-14 and that of N16-1-I-5-14 complex respectively."}, "[4]": {"system": "BL21 (DE3, Star) Escherichia coli strain expressing F30-N16-1", "assay": "Labeling of RNA in bacteria by F30-N16-1-I-5-14 complex", "type": "cell-based", "conditions": "F30-N16-1 induced with 1 mM IPTG 4 h; PBS with 2 μM I-5-14", "from_the_text": "In order to detect the effect of F30-N16-1-I-5-14 in bacteria, a bacterial expression plasmid expressing F30-N16-1 (SEQ ID NO: 2) was constructed first. F30-N16-1 in Example 2 was amplified with primers, pET28a was amplified with primers so as to remove the promoter and polyclonal site region, and then the F30-N16-1 DNA fragment obtained by means of amplification was connected to pET28a linearized vector by using the experimental method (III), and the obtained recombinant plasmid was named as pET28a-T7-F30-N16-1.\nBL21 (DE3, Star) Escherichia coli strain was transformed with recombinant plasmid pET28a-T7-F30-N16-1, and monoclone was picked and cultured at 37° C.; when OD600 is about 0.2, 1 mM of IPTG was added to induce the expression of F30-N16-1, and bacteria were collected 4 h later; resuspension was performed with a PBS solution containing 2 μM of I-5-14. BL21 (DE3, Star) Escherichia coli with transformed pET28a empty vector served as control."}, "[5]": {"system": "293T/17 cells expressing F30-N16-1", "assay": "Labeling of RNA in mammalian cells by F30-N16-1 and I-5-14", "type": "cell-based", "conditions": "1 μm of I-5-14 added 36 h after transfection", "protocol": "Main imaging experiments in the examples were carried out by using a confocal laser microscope Leica SP8 equipped with white laser, and an HCXPL APO 63×1.47 oil mirror and a HyD detector were used.\nIn order to detect labeling of RNA in mammalian cells by using F30-N16-1 and I-5-14, a mammalian cell expression plasmid expressing F30-N16-1 (SEQ ID NO: 2) was constructed. F30-N16-1 in Example 9 was amplified with primers P1, P2, and P3, respectively.\nThese fragments were inserted into pLKO.1 puro vector by using the experimental method (III), an expression vector obtained thereby was named as pLKO.1-F30-N16-1, and the plasmid expressed F30-N16-1.\n293T/17 cells were transfected with pLKO.1-F30-N16-1 plasmid, […] of I-5-14 was added 36 h later so as to label F30-N16-1, cells not expressing the corresponding aptamer served as control, and the labeling effect was detected by using experimental method (V)."}, "[6]": {"system": "RNA aptamers", "conditions": "cited from earlier work"}, "[7]": {"assay": "N16-1 as a label for RNA extraction and purification", "conditions": "total RNA of COS-7 cells; eluent vs crushed supernatant, incubated with I-5-14", "protocol": "In order to detect the application of N16-1 to RNA extraction and purification, the pCDNA3.1/hygro(+)-ACTB-N16-1 recombinant plasmids in Example 13 were transfected into COS-7 cells, cells were collected 24 h later, and total RNA of cells was extracted by using Eastep Super total RNA extraction kit (Promega). The extracted total RNA dissolved in a buffer solution having a pH value of 7.4 and containing 40 mM of HEPES, 125 mM of KCl and 5 mM of MgCl2, and was incubated at 70° C. for 10 min, and then was placed at room temperature for more than 30 min.\n500 μL of Activated Thiol Sepharose 4B (GE Healthcare) was taken and was washed twice with 500 μL of PBS, and PBS containing 10 mM of TCEP (Sigma) was added for incubation at room temperature for 1 h. 500 μL of PBS was used for cleaning twice, I-5-14 fluorophore molecules (Mal-I-5-14) containing maleic amide were added for reaction at room temperature for 30 min, and then 500 μL of PBS was used for cleaning for three times. […]\nWith crushed supernatant of blank cells as control, the fluorescence of the crushed supernatant of cells incubated with fluorophore I-5-14, and that of the eluent after final high temperature elution incubated with fluorophore I-5-14 were respectively detected."}},
  "data": [
    {"molecule": "CN(CCO)c1ccc(/C=C2\\SC(=S)NC2=O)cc1", "note": "[I-5-14]", "values": [
      {"measurement": "fluorescence intensity of the control", "setting": "[1]", "value": 399},
      {"measurement": "Maximum emission peak (nm)", "setting": "[2]; complex with F30-N16-1", "value": 574, "unit": "nm"},
      {"measurement": "Maximum excitation peak (nm)", "setting": "[2]; complex with F30-N16-1", "value": 513, "unit": "nm"},
      {"measurement": "Activation Multiple", "setting": "[2]; fluorophore with F30-N16-1", "value": 123},
      {"measurement": "maximum light absorption", "setting": "[3]", "value": 477, "unit": "nm"},
      {"measurement": "fluorescence of bacteria", "setting": "[4]", "value": "bright yellow fluorescence"},
      {"measurement": "labeling effect (fluorescence imaging)", "setting": "[5]", "value": "very bright yellow fluorescence"}
    ]},
    {"molecule": "CN(C)c1ccc(C(=C2C=CC(=[N+](C)C)C=C2)c2ccccc2)cc1", "note": "[MG, malachite green]", "values": [
      {"measurement": "fluorescence enhancement multiple", "setting": "[6]", "value": 2360}
    ]},
    {"molecule": "ACTB-N16-1: ACTB-N16-1 chimeric RNA, SEQ ID NO: 13 (nucleic acid) ANGGANGANGANANCGCCGCGCNCGNCGNCGACAACGGCNCCGGCANGNGCAAGGCCGGCNNCGCGGGCGACGANGCCCCCCGGGCCGNCNNCCCCNCCANCGNGGGGCGCCCCAGGCACCAGGGCGNGANGGNGGGCANGGGNCAGAAGGANNCCNANGNGGGCGACGAGGCCCAGAGCAAGAGAGGCANCCNCACCCNGAAGNACCCCANCGAGCACGGCANCGNCACCAACNGGGACGACANGGAGAAAANCNGGCACCACACCNNCNACAANGAGCNGCGNGNGGCNCCCGAGGAGCACCCCGNGCNGCNGACCGAGGCCCCCCNGAACCCCAAGGCCAACCGCGAGAAGANGACCCAGANCANGNNNGAGACCNNCAACACCCCAGCCANGNACGNNGCNANCCAGGCNGNGCNANCCCNGNACGCCNCNGGCCGNACCACNGGCANCGNGANGGACNCCGGNGACGGGGNCACCCACACNGNGCCCANCNACGAGGGGNANGCCCNCCCCCANGCCANCCNGCGNCNGGACCNGGCNGGCCGGGACCNGACNGACNACCNCANGAAGANCCNCACCGAGCGCGGCNACAGCNNCACCACCACGGCCGAGCGGGAAANCGNGCGNGACANNAAGGAGAAGCNGNGCNACGNCGCCCNGGACNNCGAGCAAGAGANGGCCACGGCNGCNNCCAGCNCCNCCCNGGAGAAGAGCNACGAGCNGCCNGACGGCCAGGNCANCACCANNGGCAANGAGCGGNNCCGCNGCCCNGAGGCACNCNNCCAGCCNNCCNNCCNGGGCANGGAGNCCNGNGGCANCCACGAAACNACCNNCAACNCCANCANGAAGNGNGACGNGGACANCCGCAAAGACCNGNACGCCAACACAGNGCNGNCNGGCGGCACCACCANGNACCCNGGCANNGCCGACAGGANGCAGAAGGAGANCACNGCCCNGGCACCCAGCACAANGAAGANCAAGANCANNGCNCCNCCNGAGCGCAAGNACNCCGNGNGGANCGGCGGCNCCANCCNGGCCNCGCNGNCCACCNNCCAGCAGANGNGGANCAGCAAGCAGGAGNANGACGAGNCCGGCCCCNCCANCGNCCACCGCAAANGCNNCNAGCNCGAGGCCGCGGGCNCCAGGNGCNGCNNCGGCAGGNAACGGACNNAGANCCACNGNACGCCCGCGGC", "values": [
      {"measurement": "enrichment of RNA on Mal-I-5-14 microbeads", "setting": "[7]", "value": "well enriched"}
    ]}
  ]
}
